From US20190298669A1 (priority 2018, published 2019)

Test system: A/Mississippi/3/2001 H275Y mutant (H1N1)
Assay type: cell-based, influenza A virus

CCOC(=O)C1=C[C@@H](OC(CC)CC)[C@H](NC(C)=O)[C@@H](N)C1 [oseltamivir]
reduction of virus: 43%
